Activity calls are given as the source filed them.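 The calls were made as follows: active = IC50 below 50 µM, and active in both the human and murine receptor assays; inactive = the rest.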
Molecular target: C-X-C chemokine receptor type 6 (Mus musculus) (UniProt Q9EQ16)
Experiment: mouse CXCR6 receptor antagonists, SAR follow-up, selectivity assay for human CXCR6 antagonist project, cell-based, mouse ortholog, CHO-K1, luminescence (AID 651940)
Conditions: CHO-K1 mCXCR6 beta-arrestin PathHunter

Chain of C-X-C chemokine receptor type 6 (Mus musculus) (Q9EQ16 whole entry, looked up): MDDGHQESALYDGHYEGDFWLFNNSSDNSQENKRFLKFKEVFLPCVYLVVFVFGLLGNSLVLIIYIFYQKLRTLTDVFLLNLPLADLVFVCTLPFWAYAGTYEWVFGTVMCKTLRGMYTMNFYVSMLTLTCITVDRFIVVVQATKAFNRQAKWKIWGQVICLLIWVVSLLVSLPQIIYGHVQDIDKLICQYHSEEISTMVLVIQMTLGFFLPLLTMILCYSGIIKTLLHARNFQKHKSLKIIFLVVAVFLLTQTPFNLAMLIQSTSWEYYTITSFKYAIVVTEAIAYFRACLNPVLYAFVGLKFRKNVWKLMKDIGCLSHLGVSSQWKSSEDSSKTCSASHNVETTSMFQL

SMILES | IC50
COc1cc(C(=O)NC2CC3CCCC(C2)N3CC(=O)Nc2ccc(Cl)cc2)cc(OC)c1OC (configuration not stated) | > 79 µM (inactive)
COc1ccccc1NC(=O)CN1C2CCCC1CC(NC(=O)c1cc(OC)c(OC)c(OC)c1)C2 (configuration not stated) | > 79 µM (inactive)
COc1cc(C(=O)NC2CC3CCCC(C2)N3CC(=O)Nc2ccc(F)cc2)cc(OC)c1OC (configuration not stated) | > 79 µM (inactive)
COc1cc(C(=O)NC2CC3CCCC(C2)N3CC(=O)Nc2ccc(C)cc2)cc(OC)c1OC (configuration not stated) | inactive
COc1ccc(NC(=O)CN2C3CCCC2CC(NC(=O)c2cc(OC)c(OC)c(OC)c2)C3)cc1 (configuration not stated) | > 79 µM (inactive)
COc1cc(C(=O)NC2CC3CCCC(C2)N3CC(=O)Nc2ccccc2)cc(OC)c1OC (configuration not stated) | > 79 µM (inactive)
COc1ccc(CN2C3CCCC2CC(NC(=O)c2cc(OC)c(OC)c(OC)c2)C3)cc1 (configuration not stated) | > 79 µM (inactive)

From PubChem BioAssay AID651940 (Sanford-Burnham Center for Chemical Genomics, 2012)
